Test results published in patent publication US20020192776A1, “Heliothis glutamate receptor” (Aventis Cropscience SA, priority 2000, published 2002).

System: lepidopteran glutamate-gated chloride channel
Assay: two-electrode voltage clamp recordings of Xenopus oocytes injected with HEGE2 mRNA
Type: cell-based, Heliothis virescens
Conditions: held at -80 mV
Method: Messenger RNA was produced from the cDNA template of HEGE2 by in vitro transcription with the Ambion mMESSAGE mMACHINE IN VITRO TRANSCRIPTION KIT (Ambion, Inc.). The mRNA was injected into oocytes by the following procedure.
Frogs were anesthetized in a 2 gram/liter solution of 3-amino benzoic acid ethyl ester for thirty minutes, after which oocytes were surgically removed from the abdominal cavity. Follicles were digested by collagenase treatment under sterile conditions by standard methods. Oocytes were injected with 50 nl of 1 μg/μl mRNA by glass electrodes.
After a 24 hr incubation, two-electrode voltage clamp recordings were made. Recordings were made using a Dagan, TEV200 voltage clamp interfaced with a MacLab4 data acquisition system running the MacLab Chart data acquisition/analysis software. Oocytes were positioned under a dissection scope under constant perfusion with frog saline (96 mM of NaCl, 2 mM of KCl, 1 mM of MgCl2, 1.8 mM of CaCl2 and 10 mM of HEPES, pH 7.5) using a Razel syringe perfusion pump. Model A99-FY at 93.9 cc/hr. Glass electrodes (A-M Systems. Inc. 1.5 mm×0.86 mm) were filled with 3 M KCl and resistance (a function of the diameter of the channel opening) was measured to be between 0.7 and 1.5 mega ohms. Both electrodes were inserted into the oocyte at opposite sides, the resting potential was recorded and the voltage clamp turned on. […]

Compound | activation of current in oocytes (One micromolar Ivermectin phosphate, Xenopus oocytes expressing HEGE2) | activation of membrane (chloride) current (100 uM glutamate, Xenopus oocytes injected with 50 ng of HEGE2 mRNA, FIG. 1)
Ivermectin phosphate | slowly and irreversibly activated current | 
N[C@@H](CCC(=O)O)C(=O)O [glutamate] |  | activate a membrane current
